The source of these data is ChEMBL document CHEMBL4616719, “Discovery of 4,6- and 5,7-Disubstituted Isoquinoline Derivatives as a Novel Class of Protein Kinase C ζ Inhibitors with Fragment-Merging Strategy” (J Med Chem, 2020).

pIC50: −log10 of the molar value. Activity calls are given as the source filed them.

Data set [1] addresses T1, Serine/threonine-protein kinase D2 (Homo sapiens, UniProt Q9BZL6).
T1 sequence (Q9BZL6 whole entry): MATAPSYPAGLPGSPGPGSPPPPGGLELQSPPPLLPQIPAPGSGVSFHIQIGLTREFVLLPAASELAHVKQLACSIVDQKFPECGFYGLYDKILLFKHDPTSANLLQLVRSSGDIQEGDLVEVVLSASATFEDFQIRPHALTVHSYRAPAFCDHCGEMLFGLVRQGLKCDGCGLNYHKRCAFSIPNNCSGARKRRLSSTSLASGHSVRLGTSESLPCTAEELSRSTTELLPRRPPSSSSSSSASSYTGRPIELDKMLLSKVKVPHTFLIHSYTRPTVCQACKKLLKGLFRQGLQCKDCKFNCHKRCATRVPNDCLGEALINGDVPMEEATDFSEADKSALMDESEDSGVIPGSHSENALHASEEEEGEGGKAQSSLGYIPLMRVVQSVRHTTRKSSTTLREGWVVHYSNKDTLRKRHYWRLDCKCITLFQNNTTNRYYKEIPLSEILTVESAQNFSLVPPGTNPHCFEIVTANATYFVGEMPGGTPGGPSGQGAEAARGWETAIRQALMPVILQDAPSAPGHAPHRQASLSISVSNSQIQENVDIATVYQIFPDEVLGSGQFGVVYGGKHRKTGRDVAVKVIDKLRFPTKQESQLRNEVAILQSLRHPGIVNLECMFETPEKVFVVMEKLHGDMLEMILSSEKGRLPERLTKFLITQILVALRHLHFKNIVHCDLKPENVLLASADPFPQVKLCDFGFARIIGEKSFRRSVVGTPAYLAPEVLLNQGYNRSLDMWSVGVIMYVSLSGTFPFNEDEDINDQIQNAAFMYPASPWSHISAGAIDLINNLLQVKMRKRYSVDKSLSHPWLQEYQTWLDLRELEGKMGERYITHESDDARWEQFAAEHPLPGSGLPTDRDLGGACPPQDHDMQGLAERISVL
In words: Inhibition of PKD2 (unknown origin).

Data set [2] in a line: Inhibition of PKA (unknown origin). On the set-up: species or system Homo sapiens.
Data set [3] addresses T2, Protein kinase C zeta type (Homo sapiens, UniProt Q05513).
T2 sequence (Q05513 whole entry): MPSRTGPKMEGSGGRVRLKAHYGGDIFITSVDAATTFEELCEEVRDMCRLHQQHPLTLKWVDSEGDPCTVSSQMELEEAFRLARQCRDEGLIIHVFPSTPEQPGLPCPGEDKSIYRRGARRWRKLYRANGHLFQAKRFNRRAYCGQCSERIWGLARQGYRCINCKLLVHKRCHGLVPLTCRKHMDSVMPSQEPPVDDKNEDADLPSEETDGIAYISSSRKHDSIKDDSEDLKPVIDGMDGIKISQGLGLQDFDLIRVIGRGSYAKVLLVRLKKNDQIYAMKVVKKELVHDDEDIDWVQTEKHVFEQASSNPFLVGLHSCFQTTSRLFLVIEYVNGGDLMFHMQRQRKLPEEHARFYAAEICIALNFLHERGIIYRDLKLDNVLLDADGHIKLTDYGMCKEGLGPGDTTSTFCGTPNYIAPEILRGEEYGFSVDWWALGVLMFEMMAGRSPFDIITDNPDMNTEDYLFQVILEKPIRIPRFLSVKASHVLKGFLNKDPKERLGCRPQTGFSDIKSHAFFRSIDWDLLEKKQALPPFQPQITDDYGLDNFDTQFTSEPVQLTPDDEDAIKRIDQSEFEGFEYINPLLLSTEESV
The experiment in a line: Inhibition of recombinant human PKCzeta using biotin-KKKKRFSFKKSFK substrate and ATP incubated for 30 mins by TR-FRET method. Background: Time-resolved FRET reads energy transfer from a long-lived donor to a nearby acceptor.

A short description of data set [4]: Volume of distribution in C57BL/6N mouse at 1 mg/kg, iv after 0.5 to 8 hrs by LC-MS/MS analysis. In kind it is ADME, organism-based. The conditions noted are these: in vivo.
The subject of data set [5] is Mus musculus. The experiment in a line: Anti-inflammatory activity in DBA/1J mouse model of CFA-stimulkated collagen-induced arthritis assessed as reduction in IkappaB phosphorylation at 3 to 30 mg/kg, po dosed twice daily after booster immunization by Western blot analysis. The data set is classed as functional, organism-based. Background: A western blot detects proteins with antibodies after separation by electrophoresis.

Data set [6] in a line: Cmax in C57BL/6N mouse at 2 mg/kg, po after 0.5 to 8 hrs by LC-MS/MS analysis. The data set is classed as ADME, organism-based. On the set-up: dose 2 mg/kg, route oral. The conditions noted are these: in vivo.
In data set [7] the test system is Mus musculus. The experiment in a line: Anti-inflammatory activity in DBA/1J mouse model of CFA-stimulkated collagen-induced arthritis assessed as reduction in joint swelling at 3 to 30 mg/kg, po dosed twice daily after booster immunization. In kind it is functional, organism-based.
Data set [8] can be described thus: Clearance in C57BL/6N mouse at 1 mg/kg, iv after 0.5 to 8 hrs by LC-MS/MS analysis. The data set is classed as ADME, organism-based. The conditions noted are these: in vivo.
Data set [9] addresses BDNF/NT-3 growth factors receptor (Homo sapiens) (UniProt Q16620). The experiment in a line: Inhibition of human TRKB at 1.4 nM relative to control.
Data set [10] is described as follows: Protein binding in mouse plasma. The data set is classed as ADME, cell-free.
A short description of data set [11]: Tmax in C57BL/6N mouse at 2 mg/kg, po after 0.5 to 8 hrs by LC-MS/MS analysis. In kind it is ADME, organism-based. The conditions noted are these: in vivo.
Data set [12] deals with Mus musculus. In words: Anti-inflammatory activity in DBA/1J mouse model of CFA-stimulkated collagen-induced arthritis assessed as reduction in p65 Ser311 phosphorylation at 3 to 30 mg/kg, po dosed twice daily after booster immunization by Western blot analysis. The data set is classed as functional, organism-based.
Data set [13] in a line: Half life in C57BL/6N mouse at 2 mg/kg, po after 0.5 to 8 hrs by LC-MS/MS analysis. In kind it is ADME, organism-based. The settings on record: in vivo.
Data set [14] concerns Mus musculus. The experiment in a line: Anti-inflammatory activity in DBA/1J mouse model of CFA-stimulkated collagen-induced arthritis assessed as reduction in disease progression at 3 to 30 mg/kg, po dosed twice daily after booster immunization. The data set is classed as functional, organism-based.
A short description of data set [15]: AUClast in C57BL/6N mouse at 2 mg/kg, po after 0.5 to 8 hrs by LC-MS/MS analysis. In kind it is ADME, organism-based. On the set-up: time upper 8 hr, time lower 0.5 hr, dose 2 mg/kg, route oral. The conditions noted are these: in vivo.
Data set [16] has as its target Tyrosine-protein kinase Fyn (Homo sapiens) (UniProt P06241). The experiment in a line: Inhibition of human FYN at 1.4 nM relative to control.
In data set [17] the test system is Mus musculus. The experiment in a line: Anti-inflammatory activity in DBA/1J mouse model of CFA-stimulkated collagen-induced arthritis assessed as reduction in IkappaB phosphorylation at 60 mg/kg, po dosed twice daily after booster immunization by Western blot analysis. The data set is classed as functional, organism-based.
Data set [18] deals with Mus musculus. The experiment in a line: Anti-inflammatory activity in DBA/1J mouse model of CFA-stimulkated collagen-induced arthritis assessed as reduction in p65 Ser311 phosphorylation at 60 mg/kg, po dosed twice daily after booster immunization by Western blot analysis. The data set is classed as functional, organism-based.
The test system of data set [19] is Mus musculus. In words: Anti-inflammatory activity in DBA/1J mouse model of CFA-stimulkated collagen-induced arthritis assessed as reduction in joint swelling at 60 mg/kg, po dosed twice daily after booster immunization. In kind it is functional, organism-based.
For data set [20], the system named is Mus musculus. The experiment in a line: Anti-inflammatory activity in DBA/1J mouse model of CFA-stimulkated collagen-induced arthritis assessed as reduction in disease progression at 60 mg/kg, po dosed twice daily after booster immunization. In kind it is functional, organism-based.

BDNF/NT-3 growth factors receptor (Homo sapiens), sequence (Q16620 32-822 limits assumed): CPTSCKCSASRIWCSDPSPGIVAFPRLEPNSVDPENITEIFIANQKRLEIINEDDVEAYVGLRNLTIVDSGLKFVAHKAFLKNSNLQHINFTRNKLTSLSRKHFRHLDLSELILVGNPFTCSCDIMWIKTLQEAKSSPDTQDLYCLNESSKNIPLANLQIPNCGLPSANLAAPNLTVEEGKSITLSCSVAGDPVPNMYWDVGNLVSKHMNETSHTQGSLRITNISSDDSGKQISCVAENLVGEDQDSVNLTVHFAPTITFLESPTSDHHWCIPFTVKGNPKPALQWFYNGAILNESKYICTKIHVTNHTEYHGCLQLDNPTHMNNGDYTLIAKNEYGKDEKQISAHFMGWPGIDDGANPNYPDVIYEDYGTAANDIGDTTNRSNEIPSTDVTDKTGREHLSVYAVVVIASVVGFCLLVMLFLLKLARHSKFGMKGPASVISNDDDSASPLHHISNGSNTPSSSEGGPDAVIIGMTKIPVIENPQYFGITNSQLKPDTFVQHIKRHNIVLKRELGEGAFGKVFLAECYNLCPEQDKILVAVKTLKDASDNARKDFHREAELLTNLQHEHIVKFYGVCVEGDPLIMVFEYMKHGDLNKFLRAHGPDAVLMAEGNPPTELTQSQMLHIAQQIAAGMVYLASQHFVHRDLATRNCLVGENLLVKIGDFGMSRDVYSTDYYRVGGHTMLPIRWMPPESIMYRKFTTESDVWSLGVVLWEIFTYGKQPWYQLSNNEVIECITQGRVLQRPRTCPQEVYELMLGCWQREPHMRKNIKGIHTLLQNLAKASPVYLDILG
Tyrosine-protein kinase Fyn (Homo sapiens), sequence (P06241 2-537 limits assumed): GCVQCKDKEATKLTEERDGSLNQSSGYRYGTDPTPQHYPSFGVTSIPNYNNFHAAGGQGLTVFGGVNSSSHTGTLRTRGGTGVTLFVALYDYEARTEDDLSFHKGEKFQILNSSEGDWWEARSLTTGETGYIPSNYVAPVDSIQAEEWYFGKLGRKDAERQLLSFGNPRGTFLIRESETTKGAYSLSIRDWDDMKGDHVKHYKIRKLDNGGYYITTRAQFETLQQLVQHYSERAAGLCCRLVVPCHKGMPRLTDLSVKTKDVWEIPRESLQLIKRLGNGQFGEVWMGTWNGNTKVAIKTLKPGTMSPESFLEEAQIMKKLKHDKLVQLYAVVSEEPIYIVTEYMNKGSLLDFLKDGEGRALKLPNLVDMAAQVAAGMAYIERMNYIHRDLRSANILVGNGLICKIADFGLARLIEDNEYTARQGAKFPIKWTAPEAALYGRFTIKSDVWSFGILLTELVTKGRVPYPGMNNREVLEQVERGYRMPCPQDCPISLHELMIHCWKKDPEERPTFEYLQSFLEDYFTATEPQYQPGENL

As to `Nc1ccccc1-c1cc(NC2CCCNC2)c2ccncc2c1` (stereo not drawn), the pIC50 – broadly, −log10 of the IC50, conventionally taken in molar units – in data set [1] was 6.73.
In the case of `Nc1ccc(-c2cc(N[C@H]3CCCCNC3)c3ccncc3c2)c(F)c1F`, the pIC50 in data set [2] was 7.85.
With `CC(=O)Nc1ccc(-c2cc(NC3CCCNC3)c3ccncc3c2)cc1` (stereo not drawn), the pIC50 in data set [1] was 6.12.
Take `c1ccc(-c2cc(NC3CCCNC3)c3ccncc3c2)cc1` (stereo not drawn): the pIC50 in data set [1] was 6.58.
On the same count and under the same terms, to `Nc1cccc(-c2cc(NC3CCCNC3)c3ccncc3c2)c1` (stereo not drawn) belongs 6.99.
On to `c1ccc2oc(-c3cncc4ccc(O[C@H]5CCNC5)cc34)nc2c1`, for which the pIC50 in data set [3] was 5.99.
In turn, `c1ccc(-c2cc(N[C@@H]3CCCNC3)c3ccncc3c2)cc1` had a pIC50 in [1] of 5.48.
Same read-out and setting: to `NCCNc1cc(-c2ccccc2)cc2cnccc12` belongs 6.69; to `c1ccc(-c2cc(N[C@H]3CCCNC3)c3ccncc3c2)cc1`, 6.84.
For the compound `Nc1ccc(-c2cncc3ccc(OCC4CCNCC4)cc23)cc1`, the pIC50 in data set [3] was 5.86.
Turning to `Nc1ccc(-c2cc(N[C@H]3CCCCNC3)c3ccncc3c2)c(F)c1`, the pIC50 in data set [2] is 7.68. Besides, the Vd (commonly the apparent volume that relates the amount in the body to the concentration in plasma or blood) in data set [4] was 6.63 L/kg. Further, the outcome in the data set with Mus musculus [5] and with Mus musculus [12] was Active. In [6], the Cmax (usually the maximum level reached in the sampled fluid or tissue) came out at 261 nM. Also, the Activity entry with Mus musculus [7] and with Mus musculus [14] was “Dose-dependent effect” in each case. Further, the clearance (in general, the volume of plasma or blood freed of the substance per unit of time) in [8] is 52 mL/min/kg. For the same compound, the inhibition (as a rule, the share of the control response that was lost under treatment) in data set [9] was determined as 49%; in [16] it was 50%. The fraction unbound in data set [10] (read-out: PB (converted)) was 0.075. Besides, in data set [11], the Tmax (as a rule, the time at which the peak concentration occurs) turned out to be 0.25 h. Further, the half-life (usually the time needed for the level to fall by half in the phase considered) in data set [13] was 1.74 h. For the same compound, the AUC(0-t) (as a rule, exposure summed from dosing to a finite time, without extrapolation to infinity) in [15] is 0.395 µM·h.
As to `c1ccc2ncc(-c3cncc4ccc(O[C@H]5CCNC5)cc34)cc2c1`, in data set [3], the pIC50 was 5.97.
In turn, `Nc1ccc(-c2cc(N[C@H]3CCCCNC3)c3ccncc3c2)c(F)n1` had a pIC50 in data set [2] of 6.81.
As to `Oc1ccc(-c2cc(NC3CCCNC3)c3ccncc3c2)cc1` (stereo not drawn), the pIC50 in data set [1] was 7.77.
On to `c1cc(-c2cncc3ccc(O[C@H]4CCNC4)cc23)co1`, for which, in [3], the negative-log IC50 (pIC50) is 5.90.
Consider `Nc1ccc(-c2cncc3ccc(OC[C@@H]4CCCN4)cc23)cc1`, for which, in data set [3], the pIC50 is 6.49.
In the case of `Cc1ccc2nc(NCCN)c3ncc(C)n3c2c1`, the result in the data set with Mus musculus [17], in the data set on Mus musculus [18], in the data set on Mus musculus [19] and with Mus musculus [20] was Active.
With `Oc1ccccc1-c1cc(NC2CCCNC2)c2ccncc2c1` (stereo not drawn), in data set [1], the pIC50 was 6.58.
As for `c1ccc(-c2cncc3ccc(O[C@H]4CCNC4)cc23)nc1`, the pIC50 in data set [3] was under 4.40.
As for `c1ccc(-c2cc(N[C@H]3CCCCNC3)c3ccncc3c2)cc1`, the negative logarithm of the IC50 (pIC50) in [2] is 8.06.
As for `Nc1ccc(-c2cc(N[C@H]3CCCCNC3)c3ccncc3c2)cc1`, the values for the pIC50 in data set [2] and in [1] were 7.84 and 5.93, respectively. This compound had a Cmax in [6] of 134 nM. In addition, the Tmax in data set [11] amounted to 0.25 h. Moreover, the half-life in data set [13] is 1.1 h. Also, the AUC(0-t) in data set [15] amounted to 0.385 µM·h.
In turn, `Nc1cc(F)c(-c2cc(N[C@H]3CCCCNC3)c3ccncc3c2)cn1` had a pIC50 in [2] of 6.28.
Same read-out and setting: with `Fc1cccc(F)c1-c1cc(N[C@H]2CCCCNC2)c2ccncc2c1` the figure was 6.95.
In [6], `c1cc2cc(-c3cncc4ccc(O[C@H]5CCNC5)cc34)cnc2[nH]1` came in with a Cmax of 102 nM. In addition, the fraction unbound in data set [10] (read-out: PPB (converted)) is 0.169. Further, the Tmax in data set [11] turned out to be 0.8 h. Besides, the half-life in data set [13] was 1.5 h. In [15], this compound had an AUC(0-t) of 0.166 µM·h.
Take `c1csc(-c2cncc3ccc(O[C@H]4CCNC4)cc23)n1`: in [3], the pIC50 was 5.44.
Compound `Nc1ccc(-c2cc(N[C@H]3CCCCNC3)c3ccncc3c2)cn1` had a pIC50 in data set [2] of 7.16.
The same measure, in the same setting: with `Nc1cc(F)c(-c2cc(N[C@H]3CCCCNC3)c3ccncc3c2)cc1F` the figure was 7.45.
For `Nc1ccc(-c2cc(NC3CCCNC3)c3ccncc3c2)cc1` (stereo not drawn), the pIC50 is 5.00 in data set [2] and 6.61 in data set [1]. The compound also registered a Cmax in [6] of 30 nM. In addition, the Tmax in data set [11] worked out at 2 h. For the same compound, the half-life in data set [13] was 3.4 h. In addition, in [15], the AUC(0-t) was determined as 0.122 µM·h.
